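Tested at 5 concentrations; 48 h exposure; 96-well plates; endpoints linearly interpolated, else capped at highest concentration. Abbreviation: GI50, concentration required for 50% inhibition of growth. TGI: total growth inhibition.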
How the values were obtained:
Test in all cases: DTP human tumour cell line panel, 48 h
786-0 renal = test system: 786-0 renal
A498 renal = test system: A498 renal
A549 NSCLC = test system: A549 NSCLC
ACHN renal = test system: ACHN renal
CCRF-CEM leukemia = test system: CCRF-CEM leukemia
COLO 205 colon = test system: COLO 205 colon
DU-145 prostate = test system: DU-145 prostate
EKVX NSCLC = test system: EKVX NSCLC
HCC-2998 colon = test system: HCC-2998 colon
HCT-116 colon = test system: HCT-116 colon
HCT-15 colon = test system: HCT-15 colon
HL-60(TB) leukemia = test system: HL-60(TB) leukemia
HOP-62 NSCLC = test system: HOP-62 NSCLC
HOP-92 NSCLC = test system: HOP-92 NSCLC
HS 578T breast = test system: HS 578T breast
HT29 colon = test system: HT29 colon
IGROV1 ovarian = test system: IGROV1 ovarian
KM12 colon = test system: KM12 colon
LOX IMVI melanoma = test system: LOX IMVI melanoma
M14 melanoma = test system: M14 melanoma
MALME-3M melanoma = test system: MALME-3M melanoma
MCF7 breast = test system: MCF7 breast
MDA-MB-231 breast = test system: MDA-MB-231 breast
MDA-MB-435 = test system: MDA-MB-435
MOLT-4 leukemia = test system: MOLT-4 leukemia
NCI-H226 lung = test system: NCI-H226 lung
NCI-H23 lung = test system: NCI-H23 lung
NCI-H460 lung = test system: NCI-H460 lung
NCI/ADR-RES ovarian = test system: NCI/ADR-RES ovarian
OVCAR-4 ovarian = test system: OVCAR-4 ovarian
OVCAR-5 ovarian = test system: OVCAR-5 ovarian
OVCAR-8 ovarian = test system: OVCAR-8 ovarian
RPMI-8226 leukemia = test system: RPMI-8226 leukemia
RXF 393 renal = test system: RXF 393 renal
SF-268 CNS = test system: SF-268 CNS
SF-295 CNS = test system: SF-295 CNS
SF-539 CNS = test system: SF-539 CNS
SK-MEL-28 melanoma = test system: SK-MEL-28 melanoma
SK-MEL-5 melanoma = test system: SK-MEL-5 melanoma
SK-OV-3 ovarian = test system: SK-OV-3 ovarian
SN12C renal = test system: SN12C renal
SNB-19 CNS = test system: SNB-19 CNS
SNB-75 CNS = test system: SNB-75 CNS
SR leukemia = test system: SR leukemia
SW-620 colon = test system: SW-620 colon
T-47D breast = test system: T-47D breast
TK-10 renal = test system: TK-10 renal
U251 CNS = test system: U251 CNS
UACC-257 melanoma = test system: UACC-257 melanoma
UACC-62 melanoma = test system: UACC-62 melanoma
UO-31 renal = test system: UO-31 renal
BT-549 breast = test system: BT-549 breast
CAKI-1 renal = test system: CAKI-1 renal
K-562 leukemia = test system: K-562 leukemia
OVCAR-3 ovarian = test system: OVCAR-3 ovarian
PC-3 prostate = test system: PC-3 prostate
SK-MEL-2 melanoma = test system: SK-MEL-2 melanoma

SMILES: COC(=O)CC[N+]1([O-])CC1
- TGI (786-0 renal): > 100 µM
- TGI (A498 renal): > 100 µM
- TGI (A549 NSCLC): > 100 µM
- TGI (ACHN renal): > 100 µM
- TGI (CCRF-CEM leukemia): > 100 µM
- TGI (COLO 205 colon): > 100 µM
- TGI (DU-145 prostate): > 100 µM
- TGI (EKVX NSCLC): > 100 µM
- TGI (HCC-2998 colon): > 100 µM
- TGI (HCT-116 colon): > 100 µM
- TGI (HCT-15 colon): > 100 µM
- TGI (HL-60(TB) leukemia): > 100 µM
- TGI (HOP-62 NSCLC): > 100 µM
- TGI (HOP-92 NSCLC): > 100 µM
- TGI (HS 578T breast): > 100 µM
- TGI (HT29 colon): > 100 µM
- TGI (IGROV1 ovarian): > 100 µM
- TGI (KM12 colon): > 100 µM
- TGI (LOX IMVI melanoma): > 100 µM
- TGI (M14 melanoma): > 100 µM
- TGI (MALME-3M melanoma): > 100 µM
- TGI (MCF7 breast): > 100 µM
- TGI (MDA-MB-231 breast): > 100 µM
- TGI (MDA-MB-435): > 100 µM
- TGI (MOLT-4 leukemia): > 100 µM
- TGI (NCI-H226 lung): > 100 µM
- TGI (NCI-H23 lung): > 100 µM
- TGI (NCI-H460 lung): > 100 µM
- TGI (NCI/ADR-RES ovarian): > 100 µM
- TGI (OVCAR-4 ovarian): > 100 µM
- TGI (OVCAR-5 ovarian): > 100 µM
- TGI (OVCAR-8 ovarian): > 100 µM
- TGI (RPMI-8226 leukemia): > 100 µM
- TGI (RXF 393 renal): > 100 µM
- TGI (SF-268 CNS): > 100 µM
- TGI (SF-295 CNS): > 100 µM
- TGI (SF-539 CNS): > 100 µM
- TGI (SK-MEL-28 melanoma): > 100 µM
- TGI (SK-MEL-5 melanoma): > 100 µM
- TGI (SK-OV-3 ovarian): > 100 µM
- TGI (SN12C renal): > 100 µM
- TGI (SNB-19 CNS): > 100 µM
- TGI (SNB-75 CNS): > 100 µM
- TGI (SR leukemia): > 100 µM
- TGI (SW-620 colon): > 100 µM
- TGI (T-47D breast): > 100 µM
- TGI (TK-10 renal): > 100 µM
- TGI (U251 CNS): > 100 µM
- TGI (UACC-257 melanoma): > 100 µM
- TGI (UACC-62 melanoma): > 100 µM
- TGI (UO-31 renal): > 100 µM

SMILES: CO/N=C1\CC(C)N2C(=O)C(C(C)C)NC(=O)C(NC(=O)c3c4nc5c(C(=O)NC6C(=O)NC(C(C)C)C(=O)N7C(C)CC(O)C7C(=O)N(C)CC(=O)N(C)C(C(C)C)C(=O)OC6C)ccc(C)c5oc-4c(C)c(=O)c3N)C(CO)OC(=O)C(C)N(C)C(=O)CN(C)C(=O)C12 (configuration not stated)
- TGI (BT-549 breast): 17 µM
- TGI (HOP-92 NSCLC): 16.9 µM
- TGI (NCI-H226 lung): 3.81 µM
- TGI (NCI-H23 lung): 14.5 µM
- TGI (UACC-257 melanoma): 4.31 µM

SMILES: CCN(CC)c1ccc2[nH]c3c(C(N)=O)cc(=O)c(=O)c=3oc2c1
- GI50 (786-0 renal): 2.42 µM
- TGI (786-0 renal): > 100 µM
- GI50 (A498 renal): 1.92 µM
- TGI (A498 renal): 9.28 µM
- GI50 (A549 NSCLC): 1.75 µM
- TGI (A549 NSCLC): 5.12 µM
- GI50 (ACHN renal): 1.84 µM
- TGI (ACHN renal): > 100 µM
- GI50 (BT-549 breast): 1.7 µM
- TGI (BT-549 breast): 5.17 µM
- GI50 (CAKI-1 renal): 1.09 µM
- TGI (CAKI-1 renal): 3.44 µM
- GI50 (CCRF-CEM leukemia): 1.9 µM
- TGI (CCRF-CEM leukemia): 8.19 µM
- GI50 (COLO 205 colon): 3.09 µM
- TGI (COLO 205 colon): 11.3 µM
- GI50 (DU-145 prostate): 1.87 µM
- TGI (DU-145 prostate): 7.39 µM
- GI50 (EKVX NSCLC): 2.79 µM
- TGI (EKVX NSCLC): 15.7 µM
- GI50 (HCT-116 colon): 0.281 µM
- TGI (HCT-116 colon): 1.04 µM
- GI50 (HCT-15 colon): 1.51 µM
- TGI (HCT-15 colon): > 100 µM
- GI50 (HL-60(TB) leukemia): 1.66 µM
- TGI (HL-60(TB) leukemia): 5.08 µM
- GI50 (HOP-62 NSCLC): 0.445 µM
- TGI (HOP-62 NSCLC): 15.4 µM
- GI50 (HOP-92 NSCLC): 2.82 µM
- TGI (HOP-92 NSCLC): 7.83 µM
- GI50 (HS 578T breast): 0.663 µM
- TGI (HS 578T breast): > 100 µM
- GI50 (HT29 colon): 2.97 µM
- TGI (HT29 colon): 12.9 µM
- GI50 (IGROV1 ovarian): 0.31 µM
- TGI (IGROV1 ovarian): 1.24 µM
- GI50 (K-562 leukemia): 1.93 µM
- TGI (K-562 leukemia): > 100 µM
- GI50 (KM12 colon): 2.94 µM
- TGI (KM12 colon): 11.3 µM
- GI50 (LOX IMVI melanoma): 0.581 µM
- TGI (LOX IMVI melanoma): 6.3 µM
- GI50 (M14 melanoma): 1.61 µM
- TGI (M14 melanoma): 4.17 µM
- GI50 (MALME-3M melanoma): 1.16 µM
- TGI (MALME-3M melanoma): 2.96 µM
- GI50 (MCF7 breast): 1.68 µM
- TGI (MCF7 breast): > 100 µM
- GI50 (MDA-MB-231 breast): 2.9 µM
- TGI (MDA-MB-231 breast): > 100 µM
- GI50 (MDA-MB-435): 0.377 µM
- TGI (MDA-MB-435): 9.78 µM
- GI50 (NCI-H226 lung): 2.49 µM
- TGI (NCI-H226 lung): 7.54 µM
- GI50 (NCI-H23 lung): 1.4 µM
- TGI (NCI-H23 lung): 5.17 µM
- GI50 (NCI-H460 lung): 1.34 µM
- TGI (NCI-H460 lung): 12.6 µM
- GI50 (NCI/ADR-RES ovarian): 1.72 µM
- TGI (NCI/ADR-RES ovarian): 11.8 µM
- GI50 (OVCAR-3 ovarian): 0.68 µM
- TGI (OVCAR-3 ovarian): 4.3 µM
- GI50 (OVCAR-4 ovarian): 2.03 µM
- TGI (OVCAR-4 ovarian): 11.5 µM
- GI50 (OVCAR-5 ovarian): 3.66 µM
- TGI (OVCAR-5 ovarian): 33.4 µM
- GI50 (OVCAR-8 ovarian): 2.05 µM
- TGI (OVCAR-8 ovarian): > 100 µM
- GI50 (PC-3 prostate): 2.52 µM
- TGI (PC-3 prostate): > 100 µM
- GI50 (RPMI-8226 leukemia): 0.383 µM
- TGI (RPMI-8226 leukemia): 4.7 µM
- GI50 (RXF 393 renal): 1.37 µM
- TGI (RXF 393 renal): 6.39 µM
- GI50 (SF-268 CNS): 1.98 µM
- TGI (SF-268 CNS): 15.1 µM
- GI50 (SF-295 CNS): 1.57 µM
- TGI (SF-295 CNS): 6.35 µM
- GI50 (SF-539 CNS): 0.597 µM
- TGI (SF-539 CNS): 14.1 µM
- GI50 (SK-MEL-2 melanoma): 1.65 µM
- TGI (SK-MEL-2 melanoma): 6.1 µM
- GI50 (SK-MEL-28 melanoma): 3.76 µM
- TGI (SK-MEL-28 melanoma): 17.2 µM
- GI50 (SK-MEL-5 melanoma): 1.22 µM
- TGI (SK-MEL-5 melanoma): 2.49 µM
- GI50 (SN12C renal): 2.09 µM
- TGI (SN12C renal): > 100 µM
- GI50 (SNB-19 CNS): 2.68 µM
- TGI (SNB-19 CNS): 24.5 µM
- GI50 (SNB-75 CNS): 2.04 µM
- TGI (SNB-75 CNS): 8.59 µM
- GI50 (SR leukemia): 2.84 µM
- TGI (SR leukemia): 8.74 µM
- GI50 (SW-620 colon): 2.36 µM
- TGI (SW-620 colon): > 100 µM
- GI50 (T-47D breast): 2.58 µM
- TGI (T-47D breast): > 100 µM
- GI50 (U251 CNS): 0.912 µM
- TGI (U251 CNS): 5.75 µM
- GI50 (UACC-257 melanoma): 0.683 µM
- TGI (UACC-257 melanoma): 3.25 µM
- GI50 (UACC-62 melanoma): 1.59 µM
- TGI (UACC-62 melanoma): 4.75 µM
- GI50 (UO-31 renal): 1.07 µM
- TGI (UO-31 renal): 4.12 µM
